Measured values from patent US10975432B2, “Tagged multi-nucleotides useful for nucleic acid sequencing” (Roche Sequencing Solutions, Inc., priority 2016, dated 2021).

How the values were obtained:
[1] = tested on: α-HL-Pol6 nanopore-polymerase conjugate
[2] = tested on: exonuclease deficient variant of the Pol6 polymerase; assay: Displacement assay of single-, double-, triple- and quadruple-nucleotide substrates (Example 3); format: biochemical
Source text: The assay is a displacement assay using an exonuclease deficient variant of the Pol6 polymerase as described in Example 2, wherein polymerase activity is followed by fluorometrically monitoring the change in FRET between the Cy5 and BHQ labels as the polymerase incorporates the substrates in the DNA extension reaction.
Briefly, an assay solution containing the Pol6 polymerase, the 5′-Cy5-labelled displacement DNA template of SEQ ID NO: 124, and the 3′-BHQ-labelled quencher primer of SEQ ID NO: 124 in 75 mM potassium glutamate (“K-Glu”) is prepared in the absence of the substrate or Mg^2+ ion. A substrate solution is prepared containing either the multi-nucleotide compound to be assayed (i.e., “Y-Tag,” “W-Tag,” or “Q-Tag”), the non-tagged dT6P (“Hexa-PO4), or the tagged single nucleotide substrate, dA6P-dT30-C3 (“Full Tag”) of compound (3d). Also included in the substrate solution are the other three nucleotide-hexaphosphate (“dN6P”) substrates required for polymerase synthesis of a strand complementary to the DNA template (i.e., dA6P, dC6P, dG6P). This substrate solution is added to the polymerase solution. Assays are carried out for each of the test substrates at the following initial concentrations: 0.25 μM, 0.5 μM, 1.0 μM, 2.0 μM, 4.0 μM, and 8.0 μM. Additional K-Glu is added to bring the total K-Glu concentration in the mixture up to 300 mM. The polymerase reaction is then initiated by addition of MgCl2. Final concentrations in the assay reaction mixture are: 100 nM Pol6 enzyme, 50 nM Cy5 displacement DNA template, 40 μM each of other dN6P substrates, 300 mM K-Glu, 25 mM HEPES, 0.2 mM EDTA, 0.05% Triton X-100, 5 mM TCEP, 25 μg/mL BSA, 5 mM MgCl2, pH 7.5.

## (dA6P)2-dT5-(BHEB)-dT14-C3: two dA6P linked via doubler-linker to tag SEQ ID NO: 109 (DNA TTTTTNTTTTTTTTTTTTTT; two dA6P via doubler linker, BHEB, C3 cap, chemistry not fully specified)
[1]
  Blocking current level: 0.88+/−0.03 Fraction of Open Current

## (dG6P)2-dT6-(Tmp)6-dT8-C3: two dG6P linked via doubler-linker to tag SEQ ID NO: 107 (DNA TTTTTTNNNNNNTTTTTTTT; two dG6P via doubler linker, Tmp, C3 cap; (7)..(12) thymidine methylphosphonate; (20)..(20) T-propanol)
[1]
  Blocking current level: 0.38+/−0.08 Fraction of Open Current

## (dC6P)2-dT20-C3: two dC6P linked via doubler-linker to tag SEQ ID NO: 105 (DNA tttttttttttttttttttt; two dC6P via doubler linker, C3 cap; (20)..(20) T-propanol)
[1]
  Blocking current level: 0.76+/−0.04 Fraction of Open Current

## (dT6P)2-dT4-(N3CE-dT)3-dT13-C3: two dT6P linked via doubler-linker to tag SEQ ID NO: 106 (DNA TTTTNNNTTTTTTTTTTTTT; chemistry not fully specified)
[1]
  Blocking current level: 0.62+/−0.05 Fraction of Open Current

## Cc1cn([C@H]2C[C@H](O)[C@@H](COP(=O)(O)OP(=O)(O)OP(=O)(O)OP(=O)(O)OP(=O)(O)OP(=O)(O)O)O2)c(=O)[nH]c1=O [dT6P]
[2]; Initial Conc. Tag 0.25 μM
  Rate (Bases/sec): 0.57 Bases/sec
[2]; Initial Conc. Tag 0.5 μM
  Rate (Bases/sec): 2.87 Bases/sec
[2]; Initial Conc. Tag 1.0 μM
  Rate (Bases/sec): 3.48 Bases/sec
[2]; Initial Conc. Tag 2.0 μM
  Rate (Bases/sec): 3.89 Bases/sec
[2]; Initial Conc. Tag 4.0 μM
  Rate (Bases/sec): 4.48 Bases/sec
[2]; Initial Conc. Tag 8.0 μM
  Rate (Bases/sec): 4.24 Bases/sec
